Patent US20110021531A1, “OXAZOLE DERIVATIVES USEFUL AS INHIBITORS OF FAAH” (priority 2009, published 2011)
Counter-ions that a name gives are not always drawn.

Tests used:
[1] = target: T1, rat FAAH (Fatty Acid Amide Hydrolase) (Rattus norvegicus, UniProt P97612); experiment: FAAH whole cell assay, CHO cells expressing rat FAAH; format: cell-based
T1 sequence (P97612 1-579): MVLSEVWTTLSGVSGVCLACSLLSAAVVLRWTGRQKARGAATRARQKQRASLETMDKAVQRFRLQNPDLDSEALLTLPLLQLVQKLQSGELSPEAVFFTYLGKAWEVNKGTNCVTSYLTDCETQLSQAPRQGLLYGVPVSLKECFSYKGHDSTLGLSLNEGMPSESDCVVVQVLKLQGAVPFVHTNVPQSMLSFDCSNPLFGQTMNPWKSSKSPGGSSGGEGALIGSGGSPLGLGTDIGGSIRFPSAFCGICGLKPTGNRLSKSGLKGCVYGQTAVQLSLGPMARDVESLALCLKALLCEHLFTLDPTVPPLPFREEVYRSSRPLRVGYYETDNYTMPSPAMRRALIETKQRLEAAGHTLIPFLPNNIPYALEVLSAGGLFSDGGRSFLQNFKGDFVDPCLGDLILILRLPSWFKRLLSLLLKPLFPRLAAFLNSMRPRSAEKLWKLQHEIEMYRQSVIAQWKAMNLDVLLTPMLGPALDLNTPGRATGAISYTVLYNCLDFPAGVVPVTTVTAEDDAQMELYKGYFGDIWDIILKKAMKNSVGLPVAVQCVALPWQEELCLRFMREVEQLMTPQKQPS
Text: (§1) To assist in assay development stable cell lines for human, murine and rat full length FAAH were developed. Human FAAH cDNA (Accession No: NM_001441.1) was purchased from Origene (Rockville, Md.). The full length FAAH was subcloned into the mammalian expression vector, pcDEF.neo, using XbaI and EcoRI restriction sites and used for stable cell line generation.
(§2) Murine (accession number NM_010173) and Rat FAAH (accession number NM_024132) was amplified by reverse transcriptase polymerase chain reaction (RT-PCR) from brain cDNA (BD Biosciences, San Jose, Calif.) using primers 1 and 2 or primers 1 and 3 respectively (see Table). The resulting PCR product was ligated into pCR4 TOPO and DNA sequence confirmed. The full length murine FAAH was subcloned into the mammalian expression vector, pcDEFneo using either EcoRI (murine) or KpnI and EcoRI (rat) restriction sites. Chinese hamster ovary cells (CHO) were transfected following manufacturers protocol (AMAXA). Forty eight hours post transfection, cells were trypsinized and transferred to 96 well plates in Iscove's DMEM media supplemented with 2 mM Glutamine, 10% fetal calf serum, 1 mg/ml geneticin and HT Supplement (0.1 mM sodium hypoxanthine, 0.016 mM thymidine) in order to isolate single clones. Following selection in geneticin, individual clones were selected and FAAH activity was assessed using a whole cell fluorescent anandamide assay, modified from Ramarao et al (2005). Following removal of tissue culture media cells were dislodged following addition of Cellstripper (Mediatech, Inc. Manassas, Va.) and transferred to 96 well black clear bottom assay plate, centrifuged at 1,000 rpm for 3 mins and media removed and replaced with assay buffer (50 mM Iris pH8.0, 1 mM EDTA, 0.1% fatty acid free BSA). The reaction was initiated by addition of fluorescent substrate, AMC Arachidonoyl Amide (Cayman Chemical, Ann Arbor, Mich.) to 1 μM and reaction allowed to proceed for 2 hours at room temperature. Release of fluorescence was monitored in a CytoFluor Multiplate Reader. Cells expressing the highest amount of FAAH activity were selected for study with FAAH inhibitors.
(§3) (American Radiolabeled Chemicals; 1 mCi/ml) with FAAH (Life Sciences (1995), 56, 1999-2005 and Journal of Pharmacology and Experimented Therapeutics (1997), 283, 729-734), Analytical. Biochemistry (2003), 318, 270-5. In addition, routine assays were performed monitoring hydrolysis of arachidonyl-7-amino-4-methylcoumarin amide (AAMCA) by following increase in fluorescence upon release of 7-amino 4-methyl coumarin (λEX=355 nm, (λEM=460 nm). Analytical. Biochemistry (2005). 343, 143-51
(§4) Assays are performed on either cell lysate or microsome fractions prepared as described or in whole cell format employing either the fluorescent substrate AAMCA (Cayman chemical, Ann Arbor, Mich.,) or ^3H-anandmaide ([ETHANOLAMINE-1-3H]American Radiolabeled Chemicals; 1 mCi/ml). The cell lysate or microsome assay is performed in Costar black wall, clear bottom plates by adding FAAH_CF10 (whole cell, cell lysate or microsome) in assay buffer (50 mM Phosphate, pH 8.0, 1 mM EDTA, 200 mM KCl, 0.2% glycerol, 0.1% fatty acid free BSA) to each well, followed by either DMSO or compound and allowed to incubate at 22-25° C. for fifteen minutes. AAMCA substrate was used to achieve a final concentration of 1 μM and reaction allowed to proceed at room temperature for 1-3 hours. Fluorescent release as a measure of FAAH activity was monitored by reading the plate in a CytoFluor Multiplate Reader (Ex: […]). Whole cell assay is conducted with cells harvested after rinsing tissue culture flasks three times with Ca^++Mg^++ free PBS, incubating for 10 min in Enzyme free dissociation media and centrifuging for 5 minutes at 1,000 rpm in table top centrifuge. Cells are resuspended in assay buffer at desired cell number in (4×10^4 cells/assay in 96-well format; 1×10^4 cells/assay in 384-well format) and assayed as described.

[2] = target: T2, human FAAH (Fatty Acid Amide Hydrolase) (Homo sapiens, UniProt O00519); experiment: FAAH enzyme assay on lysate of CHO cells expressing human FAAH; format: biochemical
T2 construct: The full length FAAH was subcloned into the mammalian expression vector, pcDEF.neo
T2 sequence (O00519 1-579): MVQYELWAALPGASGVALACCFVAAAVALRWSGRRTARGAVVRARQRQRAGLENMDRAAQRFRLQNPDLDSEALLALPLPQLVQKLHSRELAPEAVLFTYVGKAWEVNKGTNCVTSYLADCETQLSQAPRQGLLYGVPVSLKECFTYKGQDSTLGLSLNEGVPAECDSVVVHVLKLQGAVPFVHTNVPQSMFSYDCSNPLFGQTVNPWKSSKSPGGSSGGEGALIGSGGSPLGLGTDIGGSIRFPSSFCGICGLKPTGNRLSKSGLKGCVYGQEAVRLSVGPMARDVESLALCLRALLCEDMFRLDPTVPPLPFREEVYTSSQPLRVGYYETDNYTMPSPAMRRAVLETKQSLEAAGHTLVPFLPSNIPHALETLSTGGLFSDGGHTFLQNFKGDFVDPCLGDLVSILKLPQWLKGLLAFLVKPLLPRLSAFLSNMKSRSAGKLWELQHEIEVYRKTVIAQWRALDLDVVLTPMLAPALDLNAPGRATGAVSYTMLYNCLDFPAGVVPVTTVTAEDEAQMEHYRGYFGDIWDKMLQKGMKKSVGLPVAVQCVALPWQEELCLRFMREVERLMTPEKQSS
Text: as §1
CHO cells expressing FAAH were used to prepare either crude cell lysate or microsome fractions. To harvest cells, tissue culture media was decanted, the monolayer washed three times with Ca^++Mg^++ free PBS and cells recovered after […] in enzyme free dissociation media (Millipore Corp, Billerica, Mass.). Cells were collected by centrifuging at 2000 rpm for 15 min. and the cell pellet re-suspended with 50 mM HEPES (pH 7.4) containing 1 mM EDTA and the protease inhibitors aprotinin (1 mg/ml) and leupeptin (100 μM). The suspension was sonicated at 4° C. and the cell lysate recovered after centrifuging at 12,000×g (14,600 rpm, SS34 rotor) for 20 min at 4° C. to form a crude pellet of cell debris, nuclei, peroxisomes, lysosomes, and mitochondria; the supernatant or cell lysate was used for FAAH enzyme assay. In some cases, microsomes fractions enriched in FAAH were prepared by centrifuging the cell lysate further at 27,000 rpm (100,000×g) in SW28 rotor for 50 minutes at 4° C. The pellet containing FAAH-enriched microsomes was re-suspend in 50 mM HEPES, (pH 7.4) 1 mM EDTA, and any remaining DNA sheared by passage of material through a 23 gauge needle and aliquots of enzyme were store at −80° C. prior to use.
as §3, §4
Alternatively, assays are performed using anandamide [ethanolamine 1-^3H] (specific activity of 10 Ci/mmol) diluted with cold anandamide to achieve a final assay concentration of 1 μM anandamide (˜50,000 cpm). Enzyme (CHO cell lysate, brain or liver homogenate) is incubated in assay buffer (50 mM Phosphate, pH 8.0, 1 mM EDTA, 200 mM KCl, 0.2% glycerol, 0.1% fatty acid free BSA) with inhibitor at 25° C. for 30 minutes. The reaction was terminated by addition of 2 volumes of chloroform:methanol (1:1) and mixed by vortexing. […]

[3] = target: T2, human FAAH (Fatty Acid Amide Hydrolase); experiment: FAAH whole cell assay, CHO cells expressing human FAAH; format: cell-based
Text: as §1, §2, §3, §4

| SMILES | IC50 [1] [nM] | IC50 [2] [nM] | IC50 [3] [nM] |
| --- | --- | --- | --- |
| C[S+]([O-])c1ccc(-c2nc(-c3ccc(F)cc3)oc2Sc2ccc(Cl)cn2)cn1 (racemic) [Ex 108, (R)-5-Chloro-2-({2-(4-fluorophenyl)-4-[6-(methylsulfinyl)pyridin-3-yl]-1,3-oxazol-5-yl}sulfanyl)pyridine and (S)-5-Chloro-2-({2-(4-fluorophenyl)-4-[6-(methylsulfinyl)pyridin-3-yl]-1,3-oxazol-5-yl}sulfanyl)pyridine] | 17 | 5 | 20 |
| CC(C)(O)c1cnc(-c2nc(-c3ccc(F)cc3)oc2Sc2ccc(Cl)cn2)cn1 [Ex 3, 2-{5-[5-[(5-Chloropyridin-2-yl)thio]-2-(4-fluorophenyl)-1,3-oxazol-4-yl]pyrazin-2-yl}propan-2-ol] | 44 | 23 | 71 |
| CC(C)(O)c1ccc(-c2nc(-c3ccc(F)cc3)oc2Sc2ccc(Cl)cn2)cn1 [Ex 12, 2-{5-[5-[(5-Chloropyridin-2-yl)thio]-2-(4-fluorophenyl)-1,3-oxazol-4-yl]pyridin-2-yl}propan-2-ol] | 13 | 19 | 25 |
| CC(C)(O)c1ccc(-c2nc(-c3ccc(F)cc3)oc2Sc2ccc(F)cn2)cn1 [Ex 19] | 18 | 38 | 78 |
| CC(C)(O)c1ccc(-c2nc(-c3ccc(F)cc3)oc2Sc2ncc(Cl)cn2)cn1 [Ex 20] | 29 | 43 | 59 |
| CC(C)(O)c1ccc(-c2nc(-c3ccc(F)c(F)c3)oc2Sc2ccc(Cl)cn2)cn1 [Ex 35] | 21 | 27 | 37 |
| Cc1cc(F)ccc1-c1nc(-c2ccc(C(C)(C)O)nc2)c(Sc2ccc(Cl)cn2)o1 [Ex 37] | 15 | 13 | 40 |
| CC(C)(O)c1ccc(-c2nc(-c3ccc(F)cc3)oc2Sc2ccc(Cl)cc2)nc1 [Ex 46] | 10 | 17 | 39 |
| Fc1ccc(-c2nc(-c3ccc(-c4ncon4)cc3)c(Sc3ccc(Cl)cc3)o2)cc1 [Ex 48, 3-{4-[5-[(4-Chlorophenyl)thio]-2-(4-fluorophenyl)-1,3-oxazol-4-yl]phenyl}-1,2,4-oxadiazole] | 8 | 9 | 77 |
| CC(C)(O)c1ccc(-c2nc(-c3ccccn3)oc2Sc2ccc(Cl)cn2)cn1 [Ex 51, 2-(5-{5-[(5-chloropyridin-2-yl)thio]-2-pyridin-2-yl-1,3-oxazol-4-yl}pyridin-2-yl)propan-2-ol, trifluoroacetic acid salt] | 107 | 26 | 148 |
| CS(=O)(=O)c1ccc(-c2nc(-c3ccccn3)oc2Sc2ccc(Cl)cc2)cc1 [Ex 56, 2-{5-[(4-chlorophenyl)thio]-4-[4-(methylsulfonyl)phenyl]-1,3-oxazol-2-yl}pyridine] | 16 | 15 | 114 |
| CC(C)(O)c1ccc(-c2nc(-c3cc(F)c(F)cc3F)oc2Sc2ccc(Cl)cn2)cn1 [Ex 58] | 74 | 37 | 112 |
| Cc1ccc(-c2nc(-c3ccc(C(C)(C)O)nc3)c(Sc3ccc(Cl)cn3)o2)cc1 [Ex 59] | 40 | 20 | 67 |
| CC(C)(O)c1ccc(-c2nc(-c3ccccc3)oc2Sc2ncc(Cl)cn2)cn1 [Ex 62] | 29 | 23 | 41 |
| COc1ccc(Sc2oc(-c3ccc(F)cc3)nc2-c2ccc(C(C)(C)O)nc2)c(F)c1 [Ex 65] | 21 | 27 | 29 |
| CC(C)(O)c1ccc(-c2nc(-c3ccc(OC(F)(F)F)cc3)oc2Sc2ccc(Cl)cn2)cn1 [Ex 68] | 83 | 15 | 100 |
| CCOC(=O)c1cc(-c2nc(-c3ccc(F)cc3)oc2Sc2ccc(Cl)cn2)on1 [Ex 97, Ethyl 5-{5-[(5-chloropyridin-2-yl)sulfanyl]-2-(4-fluorophenyl)-1,3-oxazol-4-yl}isoxazole-3-carboxylate] | 10 | 20 | – |
